Results published in patent US5994320A, “Antisense oligonucleotides and methods for treating central nervous system tumors” (Regents of the University of Minnesota, priority 1997, dated 1999).

Experiments:
[1] = test system: U87 glioblastoma cell line; test: 3H-thymidine assay of U87 cell proliferation; type: cell-based, human; details: U87 cells, 5 nanomoles/500 microliters; for 3H-thymidine incorporation, mean ± SEM: 2 days; for % Control (proliferation): 2 days (48 hours)
Procedure: (§1) Antisense oligonucleotides were incubated with glioblastoma (T98, U87, U373) and medulloblastoma (DAOY) cell lines when they were approximately 60% confluent. Antisense oligonucleotides were added at 5 nanomoles/500 microliters and incubated for 2 days in phosphate buffered saline. Growth of cells lines was measured at 2 days using a standard ^3 H-thymidine assay. Coligan et al., Current Protocols in Immunology, Vol. 2, pg.

[2] = test system: T98 glioblastoma cell line; test: 3H-thymidine assay of T98 cell proliferation; type: cell-based, human; details: T98 cells, 5 nanomoles/500 microliters; for 3H-thymidine incorporation, mean ± SEM: 2 days; for % Control (proliferation): 2 days (48 hours)
Procedure: as §1

[3] = test system: U373 glioblastoma cell line; test: 3H-thymidine assay of U373 cell proliferation; type: cell-based, human; details: U373 cells, 5 nanomoles/500 microliters; for 3H-thymidine incorporation, mean ± SEM: 2 days; for % Control (proliferation): 2 days (48 hours)
Procedure: as §1

[4] = test system: DAOY medulloblastoma cell line; test: 3H-thymidine assay of DAOY cell proliferation; type: cell-based, human; details: DAOY cells, 5 nanomoles/500 microliters; for 3H-thymidine incorporation, mean ± SEM: 2 days; for % Control (proliferation): 2 days (48 hours)
Procedure: as §1

EGF receptor = EGF receptor expression by flow cytometry in T98 and U87 cells; type: cell-based, human; details: 10 μM, 48 hours
Procedure: The effects of c-myb antisense on the expression of epidermal growth factor (EGF) receptors in T98 and U87 cells in vitro was examined using a flow cytometric approach to quantify fluorescently labeled receptors. T98 and U87 cell lines that were treated with 10 μM antisense oligonucleotides for 48 hours were harvested. About 10^5 10^6 (number of cells) were incubated with fluorescently labeled antibody to EGF receptor (available from Upstate Biotech, Inc.) for 24 hours. The cells were then analyzed using a Beckman FACS cell sorter.
Cells for receptor expression assays were harvested, washed twice in PBS and fixed in 70% ethanol of 2% paraformaldehyde. After washing, cells were incubated with appropriate concentrations of specific receptor antibodies for 2-12 hours. Antibody conjugated FITC was then added to the cell suspensions. Cells were washed well between steps and resuspended in Hanks balanced salt solution, 1% sodium azide, and 1% bovine serum albumin. FITC fluorescence was then assayed by flow cytometry counting 10,000 cells per sample. The amount of fluorescently labeled EGF receptor and PDGF receptor were determined by standard flow cytometry analysis.

U87 gliomas = test: Intraflank U87 tumors in nude mice, intratumoral injection; type: in vivo, athymic nude mice; details: for Change in tumor size at day 21: 100 μM, 50 μl (5 nanomoles/injection) intratumorally every two days, days 13 to 21
Procedure: Solid U87 gliomas were established in the flanks of athymic nude mice aged 4-6 weeks. Each animal received 5×10^6 U87 cells in 200 μl of medium. The cells were injected subcutaneously into one flank through a 25-gauge needle attached to a tuberculin syringe.
Cells were initially grown in a monolayer at 37° C. in DMEM medium containing 10% fetal calf serum, 2 mM glutamine, 1000 IU/ml of penicillin, and 100 μg/ml of streptomycin. Cells were harvested from culture flasks using trypsin immediately before injection and were kept on ice until the time of injection. Before injection the number of viable cells were confirmed by trypan blue exclusion. Past experience has shown that approximately 90% of tumors will successfully grow in the flank after U87 cell inoculation.
Tumors were allowed to grow for 14 days. Tumor size was evaluated with Vernier calipers using the formula 1/2 length(width)^2 where the length was the longest dimension and the width was the diameter perpendicular to the length. AONcmyb(2-7) was then injected using a Hamilton syringe directly into the tumor at a concentration of 0, 1, 10, or 100 μM in 50 μl volumes on alternate days for 8 days (FIG. 1).
The effects of administering 100 μM concentrations of AONcmyb(2-7) and AONcmyb(182-188) with their corresponding nonsense oligonucleotides, NONcmyb(2-7) and NONcmyb(182-188) along with Hank's Balanced Salt Solution as controls was compared. From days 13 to 21 animals received 50 μl(5 nanomoles/injection) injections intratumorally of either antisense, nonsense, or HBSS every two days.

[5] = test system: human U87 glioblastoma cells; test: Intracerebral infusion, survival of nude rats with intrastriatal U87 xenografts; type: in vivo; details: 0.1 nmole/hour continuous infusion over 14 days; saline animals survived only 13 days
Procedure: The effects of infusing c-myb antisense to codons 2-7 on the survival of nude rats with intrastriatal xenografts of human U87 glioblastoma cells was examined. A dose of 0.1 nmole/hour was infused. This dose is equivalent to the delivery of 100 µM of c-myb antisense injected directly into intraflank U87 tumors in 50 Ul volumes on alternate days. Animals received continuous infusions of either c-myb antisense or saline by Alzet Osmotic Minipump (Alza, Palo Alto, Calif.) over a period of 14 days. The pump was implanted immediately above the site of the tumor.

[6] = Toxicity of intraventricular antisense administration (Whitesell et al.); type: in vivo, rats; details: 0.1 nmole/hr versus toxic 3.0 nmole/hr
Procedure: In a study assessing the toxicity of intraventricular antisense administration (Whitesell et al., Proc. Natl. Acad. Sci., 90:4665-4669, 1993), it was determined that dosages of 1.5 nmoles/hr were well tolerated in rats while a dose of 3.0 nmole/hr was toxic. […] Therefore, it is believed that an increase in dose of the c-myb antisense can be administered that will improve survival without toxic side effects.

Row | Substance | 3H-thymidine incorporation, mean ± SEM [1] | % Control (proliferation) [1] | 3H-thymidine incorporation, mean ± SEM [2] | % Control (proliferation) [2] | 3H-thymidine incorporation, mean ± SEM [3] | % Control (proliferation) [3] | 3H-thymidine incorporation, mean ± SEM [4] | % Control (proliferation) [4] | EGF receptor binding, % of control levels (EGF receptor) | Suppression of tumor growth, comparison of concentrations (U87 gliomas; 100 μM versus 0, 1, 10 μM, 50 μl intratumoral on alternate days for 8 days) | Change in tumor size at day 21 (U87 gliomas) | Animals with increased survival times [5] | Factor by which the dose used is below the toxic level for antisense in the brain [6]
1 | 5'-GTG CCG GGG TCT TCG GGC-3' (antisense GTGCCGGGGTCTTCGGGC; chemistry not given here) [AONcmyb(2-7), antisense to the initiator region of c-myb, codons 2-7] | 74,688 ± 10,145 dpm | 20% | 67,318 ± 6,183 dpm | 53% | 402,504 ± 49,647 dpm | 52% | 604,061 ± 59,989 dpm | 53% | 13%-30% | most effective in suppressing tumor growth | no significant change | 25% | 30 times
2 | 5'-TGTAGAATTCCAGTGGTTCTT-3' (antisense TGTAGAATTCCAGTGGTTCTT; chemistry not given here) [AONcmyb(182-188)] | 92,968 ± 37,259 dpm | 25% | 78,457 ± 3,224 dpm | 61% | 588,082 ± 25,836 dpm | 76% | 517,725 ± 105,450 dpm | 45% | 30%-35% |  | no significant change |  | 
